Measurements published in US6166035A, “1,4-dihydropyridine derivatives and their use in therapy” (Laboratoire L. Lafon, priority 1997, dated 2000).

How the values were obtained:
isolated rat aorta = test: Anticalcium activity: antagonism of KCl-mediated contraction of isolated rat aorta; details: KCl 5×10^-2 M.l^-1 contraction, isolated rat thoracic aorta ring
Method: 2) Anticalcium activity by measuring the KCl-mediated antagonism of the contraction of isolated rat aorta
The technique employed uses a ring of arterial vascular tissue taken from rat thoracic aorta and then kept alive in aerated bicarbonated Krebs buffer, and subjected to an initial tension of 2 g. The introduction of potassium chloride KCl (in a volume of 300 μl) at a concentration 5×10^-2 M.l^-1 into the Krebs buffer bath generates a sustained contraction whose amplitude (isometric tension) is antagonized by the addition of a solution of the test compound of increasing concentrations, each addition being made every 5 minutes. The molar concentration of the test compound which reduces by 50% the maximum contraction observed in KCl is then calculated. This concentration is the 50% inhibitory concentration (or IC50).

[1] = test system: conscious, spontaneously hypertensive rats; test: Hypotensive effect in conscious, spontaneously hypertensive rats; type: in vivo, rat; details: gastric route
Method: 3) Hypotensive effect in conscious, spontaneously hypertensive rats
The animals receive increasing doses of compound every 90 minutes via the gastric route.
The hypotensive effect is evaluated by means of the percentage of maximum reduction of the average arterial pressure after administration of each dose.

anaesthetized dogs = test: Therapeutic index: minimum arrhythmogenic dose / dose active on the coronary output, anaesthetized dogs; type: in vivo, dog; parameters: minimum arrhythmogenic dose: unit: µg/kg; details: for ED (50% increase): Canis lupus familiaris, iv, read-out: dose which is active on the coronary output (increases the basal coronary output by 50%); for minimum arrhythmogenic dose: anaesthetized dogs, intravenous route
From the text: (§1) 5) Therapeutic index The therapeutic index is defined as being the ratio between the minimum arrhythmogenic dose and the dose which increases the basal coronary output by 50% (this dose is referred to hereinbelow as the "dose which is active on the coronary output").

[2] = as above; type: in vivo, dog; parameters: minimum arrhythmogenic dose: unit: µg/kg; details: dog, in vivo; ratio, anaesthetized dogs, intravenous route; read-out: Arrhythmogenic dose/dose which is active on the coronary output (therapeutic index)
From the text: as §1

[3] = test system: coronary output of anaesthetized dogs; test: Effect on the coronary output of anaesthetized dogs; type: in vivo, dog; details: intravenous
Method: 4) Effect on the coronary output of anaesthetized dogs
The animals receive increasing doses of compound every 30 minutes via the intravenous route. The effect on the coronary output is evaluated by means of its percentage of maximum variation after each dose.

[4] = biological target: T1, DHP sites of rat cardiac ventricles (Rattus norvegicus, UniProt P22002); test: Anticalcium activity: affinity for the DHP sites of rat cardiac ventricles, displacement of (+)-[3H]-PN 200-110; type: binding; details: displacement of (+)-[3H]-PN 200-110, rat cardiac ventricle membranes, 30 minutes, 30° C.
T1 construct: membrane preparation of the receptors, this preparation being obtained after dissecting the ventricles; from tissue; host or cells: rat cardiac ventricles (membrane preparation)
Method: 1) Anticalcium activity by measuring the affinity for the DHP sites of rat cardiac ventricles
These membrane preparations are placed in contact with the specific radioactive ligand (+)-[^3 H]-PN 200-110 and the test compound, at different concentrations. The suspension is stirred for 30 minutes at a temperature of 30° C. The reaction is then stopped by filtration using a Harvester-type system. The filter is introduced into a counting flask containing scintillation liquid. The radioactivity present on each filter is then measured by counting in a β-counter with liquid scintillation.
The intensity of the binding to the membrane receptors is defined by the (molar) concentration of the test compound which is needed to displace 50% of the amount of the specific ligand (+)-[^3 H]-PN 200-110 prebound to the DHP sites. This concentration is the IC50 concentration.

[5] = dose +10 mg/kg, increasing doses every 90 minutes
[6] = dose +30 mg/kg, increasing doses every 90 minutes
[7] = dose +10 μg/kg, increasing doses every 30 minutes
[8] = dose +20 μg/kg, increasing doses every 30 minutes
[9] = dose +40 μg/kg, increasing doses every 30 minutes
[10] = dose +80 μg/kg, increasing doses every 30 minutes
[11] = dose +160 μg/kg, increasing doses every 30 minutes
[12] = dose +320 μg/kg, increasing doses every 30 minutes

T1 sequence (P22002 whole entry, other chains not shown): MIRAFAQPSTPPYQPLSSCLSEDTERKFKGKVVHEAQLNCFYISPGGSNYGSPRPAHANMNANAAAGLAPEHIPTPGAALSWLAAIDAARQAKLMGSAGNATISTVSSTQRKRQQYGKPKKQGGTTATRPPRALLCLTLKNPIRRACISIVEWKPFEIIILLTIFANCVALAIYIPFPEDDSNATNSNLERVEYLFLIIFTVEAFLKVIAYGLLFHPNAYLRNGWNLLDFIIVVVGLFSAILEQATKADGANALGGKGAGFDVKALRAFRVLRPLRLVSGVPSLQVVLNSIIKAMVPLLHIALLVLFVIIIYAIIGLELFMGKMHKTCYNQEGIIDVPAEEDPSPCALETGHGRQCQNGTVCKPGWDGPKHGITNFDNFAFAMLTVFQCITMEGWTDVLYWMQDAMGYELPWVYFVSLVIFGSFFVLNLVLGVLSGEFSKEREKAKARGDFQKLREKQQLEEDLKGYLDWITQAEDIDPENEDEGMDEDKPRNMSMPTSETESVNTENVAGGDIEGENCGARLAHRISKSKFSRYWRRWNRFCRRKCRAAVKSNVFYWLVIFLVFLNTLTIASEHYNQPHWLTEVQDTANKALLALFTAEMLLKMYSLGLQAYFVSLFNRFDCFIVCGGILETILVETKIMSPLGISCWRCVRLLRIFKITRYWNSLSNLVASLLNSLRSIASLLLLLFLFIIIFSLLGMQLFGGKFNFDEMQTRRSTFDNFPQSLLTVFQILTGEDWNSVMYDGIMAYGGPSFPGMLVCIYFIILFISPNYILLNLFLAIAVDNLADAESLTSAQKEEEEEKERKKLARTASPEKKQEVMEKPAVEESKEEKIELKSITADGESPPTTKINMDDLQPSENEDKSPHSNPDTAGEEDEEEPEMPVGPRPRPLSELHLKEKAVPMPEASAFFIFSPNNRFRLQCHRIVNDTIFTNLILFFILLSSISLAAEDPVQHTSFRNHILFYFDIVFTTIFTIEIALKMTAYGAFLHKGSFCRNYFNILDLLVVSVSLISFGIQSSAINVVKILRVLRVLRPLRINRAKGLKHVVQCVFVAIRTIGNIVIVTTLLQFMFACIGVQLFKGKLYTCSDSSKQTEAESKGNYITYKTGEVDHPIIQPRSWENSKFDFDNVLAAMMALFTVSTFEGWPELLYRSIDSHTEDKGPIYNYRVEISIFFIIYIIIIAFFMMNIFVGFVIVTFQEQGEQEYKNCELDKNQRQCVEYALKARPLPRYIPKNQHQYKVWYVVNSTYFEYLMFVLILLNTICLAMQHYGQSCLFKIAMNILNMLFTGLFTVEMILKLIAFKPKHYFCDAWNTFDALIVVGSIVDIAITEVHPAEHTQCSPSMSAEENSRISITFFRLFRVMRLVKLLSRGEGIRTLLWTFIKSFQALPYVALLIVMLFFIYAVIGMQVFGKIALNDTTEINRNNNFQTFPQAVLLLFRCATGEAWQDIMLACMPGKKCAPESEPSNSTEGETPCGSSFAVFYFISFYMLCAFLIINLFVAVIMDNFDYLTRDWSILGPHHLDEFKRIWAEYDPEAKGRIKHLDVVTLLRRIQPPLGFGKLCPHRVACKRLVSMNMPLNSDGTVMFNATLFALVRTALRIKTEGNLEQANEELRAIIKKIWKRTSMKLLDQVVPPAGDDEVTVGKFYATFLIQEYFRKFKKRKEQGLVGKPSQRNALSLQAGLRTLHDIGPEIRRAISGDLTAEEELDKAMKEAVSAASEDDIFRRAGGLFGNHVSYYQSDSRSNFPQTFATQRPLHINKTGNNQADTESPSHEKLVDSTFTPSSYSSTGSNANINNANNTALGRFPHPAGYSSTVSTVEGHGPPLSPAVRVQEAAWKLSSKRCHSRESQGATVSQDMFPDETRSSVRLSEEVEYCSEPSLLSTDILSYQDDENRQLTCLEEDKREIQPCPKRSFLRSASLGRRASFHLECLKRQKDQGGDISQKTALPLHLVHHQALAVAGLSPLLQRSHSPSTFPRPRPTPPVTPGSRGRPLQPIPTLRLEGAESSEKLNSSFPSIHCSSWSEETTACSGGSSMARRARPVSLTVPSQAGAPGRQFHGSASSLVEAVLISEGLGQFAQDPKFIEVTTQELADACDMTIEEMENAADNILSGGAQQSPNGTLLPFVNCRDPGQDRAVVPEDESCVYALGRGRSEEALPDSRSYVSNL
T1 sequence (P54290 25-944 partner limits assumed, other chains not shown): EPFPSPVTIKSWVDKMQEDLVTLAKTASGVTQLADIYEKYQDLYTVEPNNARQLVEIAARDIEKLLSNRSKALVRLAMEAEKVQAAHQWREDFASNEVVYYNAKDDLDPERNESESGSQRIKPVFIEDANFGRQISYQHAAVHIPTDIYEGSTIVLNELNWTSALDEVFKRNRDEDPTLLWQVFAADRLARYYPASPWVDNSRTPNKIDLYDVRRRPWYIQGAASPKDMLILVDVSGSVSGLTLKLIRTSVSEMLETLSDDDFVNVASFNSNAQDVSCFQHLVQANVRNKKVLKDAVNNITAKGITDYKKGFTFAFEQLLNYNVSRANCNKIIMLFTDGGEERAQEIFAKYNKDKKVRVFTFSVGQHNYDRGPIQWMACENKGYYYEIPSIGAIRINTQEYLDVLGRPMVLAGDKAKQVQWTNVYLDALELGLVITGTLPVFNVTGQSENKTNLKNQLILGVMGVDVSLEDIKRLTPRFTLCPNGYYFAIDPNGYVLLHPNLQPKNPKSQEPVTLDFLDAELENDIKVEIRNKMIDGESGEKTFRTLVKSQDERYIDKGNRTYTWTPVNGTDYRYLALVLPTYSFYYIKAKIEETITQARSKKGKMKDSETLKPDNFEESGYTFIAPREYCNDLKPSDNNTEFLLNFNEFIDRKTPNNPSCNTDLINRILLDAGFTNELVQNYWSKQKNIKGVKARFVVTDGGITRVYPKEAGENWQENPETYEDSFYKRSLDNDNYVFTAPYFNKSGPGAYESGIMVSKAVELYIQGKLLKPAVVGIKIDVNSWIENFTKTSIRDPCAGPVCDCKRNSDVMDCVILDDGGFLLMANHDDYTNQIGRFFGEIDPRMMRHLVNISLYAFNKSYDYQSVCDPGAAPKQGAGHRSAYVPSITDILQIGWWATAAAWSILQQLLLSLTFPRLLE
T1 sequence (P54290 945-1091 partner limits assumed, other chains not shown): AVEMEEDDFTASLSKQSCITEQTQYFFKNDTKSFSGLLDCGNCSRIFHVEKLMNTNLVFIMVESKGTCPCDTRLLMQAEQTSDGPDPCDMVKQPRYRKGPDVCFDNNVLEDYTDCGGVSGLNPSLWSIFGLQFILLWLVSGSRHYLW

SMILES	IC50 (isolated rat aorta) [nM]	percentage of maximum reduction of the average arterial pressure ([1]; dose 3 mg/kg) [%]	percentage of maximum reduction of the average arterial pressure [1, 5] [%]	percentage of maximum reduction of the average arterial pressure [1, 6] [%]	ED (50% increase) (anaesthetized dogs) [mg/kg]	minimum arrhythmogenic dose (anaesthetized dogs)	selectivity ratio [2]	percentage of maximum variation of the coronary output ([3]; dose 5 μg/kg)	percentage of maximum variation of the coronary output [3, 7]	percentage of maximum variation of the coronary output [3, 8]	percentage of maximum variation of the coronary output [3, 9]	percentage of maximum variation of the coronary output [3, 10]	percentage of maximum variation of the coronary output [3, 11]	percentage of maximum variation of the coronary output [3, 12]	IC50 [4] [nM]
COC(=O)C1=C(C)NC(C)=C(C(=O)O[C@@H]2CCCN(CCCCC(=O)c3cccs3)C2)[C@H]1c1cccc([N+](=O)[O-])c1 [Example 1, (4S,3'R)(-)N-[4-(2-thienoyl)-butyl]piperid-3'-yl 2,6-dimethyl-4-(3-nitrophenyl)-5-methoxycarbonyl-1,4-dihydropyridine-3-carboxylate]	130	0	-22	-45	0.02	640	32	12%	+28%	+56%	+72%	+81%	+67%	+64%	15
COC(=O)C1=C(C)NC(C)=C(C(=O)O[C@@H]2CCN(CCCCC(=O)c3c(OC)cc(OC)cc3OC)C2)[C@H]1c1cccc([N+](=O)[O-])c1 [Example 2, (4S,3'R)(-)N-[4-(2,4,6-trimethoxybenzoyl)butyl]pyrrolidin-3'-yl 2,6-dimethyl-4-(3-nitrophenyl)-5-methoxycarbonyl-1,4-dihydropyridine-3-carboxylate]					0.04	640	16	+16%	+14%	+34%	+78%	+68%	+59%	+33%	7.8
COC(=O)C1=C(C)NC(C)=C(C(=O)O[C@@H]2CCCN(CCCCC(=O)c3ccc[nH]3)C2)[C@H]1c1cccc([N+](=O)[O-])c1 [Example 3, (4S,3'R)(-)N-[5-(1H-pyrrol-2-yl)-5-oxopentyl]piperid-3'-yl 2,6-dimethyl-4-(3-nitrophenyl)-5-methoxycarbonyl-1,4-dihydropyridine-3-caroxylate]	160	-12	-21	-54	0.02	640	32	+7%	+30%	+59%	+76%	+84%	+84%	+59%	
COC(=O)C1=C(C)NC(C)=C(C(=O)O[C@@H]2CCCN(CCCC(=O)c3cccs3)C2)[C@H]1c1cccc([N+](=O)[O-])c1 [Example A, reference compound]					0.64	640	1								
COC(=O)C1=C(C)NC(C)=C(C(=O)O[C@@H]2CCN(CCCC(=O)c3c(OC)cc(OC)cc3OC)C2)[C@H]1c1cccc([N+](=O)[O-])c1 [Example B, reference compound]					0.64	640	1								
